Drawing on ChEMBL document CHEMBL1833845, “Potent inhibition of bacterial neuraminidase activity by pterocarpans isolated from the roots of Lespedeza bicolor” (Bioorg Med Chem Lett, 2011), this text covers Ki and IC50 for seven compounds.

Molecules are shown by their SMILES.

The target of assay [1] is T1, Sialidase (Clostridium perfringens, UniProt P10481).
T1 sequence (P10481 whole entry): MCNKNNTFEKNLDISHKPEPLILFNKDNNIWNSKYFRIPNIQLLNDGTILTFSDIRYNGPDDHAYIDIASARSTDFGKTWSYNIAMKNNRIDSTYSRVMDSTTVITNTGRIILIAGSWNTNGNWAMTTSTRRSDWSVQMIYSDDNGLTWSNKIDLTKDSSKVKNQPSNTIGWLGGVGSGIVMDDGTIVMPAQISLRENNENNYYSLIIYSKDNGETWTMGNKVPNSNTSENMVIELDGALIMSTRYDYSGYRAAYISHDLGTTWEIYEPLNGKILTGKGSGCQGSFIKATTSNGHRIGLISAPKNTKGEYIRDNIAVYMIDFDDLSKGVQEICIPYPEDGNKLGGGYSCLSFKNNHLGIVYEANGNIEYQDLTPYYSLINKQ

For assay [2], the target named is T1, Sialidase. The source holds these as a separate data set.

A word on the Ki: it is a measure of affinity in units of concentration, obtained from inhibition or displacement. A lower Ki goes with higher affinity. One may read the IC50 as the midpoint of a concentration-inhibition curve. A lower IC50 goes with inhibition by little substance. Turning to `COc1c(CC=C(C)C)c(O)cc2c1[C@@H]1Oc3c(ccc(O)c3CC=C(C)C)[C@@H]1CO2`, the Ki at Sialidase [1] is 110 nM. The compound also yielded an IC50 against Sialidase [2] of 90 nM.
`COc1c(CC=C(C)C)c(O)cc2c1[C@@H]1Oc3c(cc(C)c(O)c3CC=C(C)C)[C@@H]1CO2` [BICOLOSIN A] had a Ki at Sialidase [1] of 160 nM. This compound also showed an IC50 against Sialidase [2] of 320 nM.
As to `CC(C)=CCC/C(C)=C/Cc1cc2c(cc1O)OC[C@H]1c3cc(C)c(O)c(CC=C(C)C)c3O[C@@H]21` [BICOLOSIN B], the Ki on Sialidase [1] is 1200 nM. The compound also returned an IC50 against Sialidase [2] of 1060 nM.
For the compound `COc1cc(O)c(C/C=C(\C)CCC=C(C)C)c2c1[C@@H]1Oc3cc(O)ccc3[C@@H]1CO2` [BICOLOSIN C], the Ki at Sialidase [1] was 160 nM. In addition, inhibition against Sialidase [2] was half-maximal at 170 nM (IC50).
On the same counts, the results for `CC(C)=CCc1cc2c(cc1O)OC[C@H]1c3ccc(O)c(CC=C(C)C)c3O[C@@H]21` [ERYBRAEDIN C] are 2730 nM and 3350 nM.
On the same counts, the results for `CC(C)=CCc1cc2c(cc1O)OCC1c3cc(C)c(O)c(CC=C(C)C)c3OC21` (stereo not drawn) [LESPEBUERGINE G4] are 1350 nM and 1840 nM.
Compound `O=c1c(O)c(-c2ccc(O)c(O)c2)oc2cc(O)cc(O)c12` [QUERCETIN] registered an IC50 against Sialidase [2] of 10100 nM.
